Test results taken from PubChem BioAssay (NCI).
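GI50: concentration for 50% inhibition of growth. TGI marks complete inhibition of growth.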

Key:
Assay in all cases: NCI-60 cell line screen, 384-well format
SN12C renal = tested on: SN12C renal
CAKI-1 renal = tested on: CAKI-1 renal
SF-295 CNS = tested on: SF-295 CNS
RXF 393 renal = tested on: RXF 393 renal
SW-620 colon = tested on: SW-620 colon
HT29 colon = tested on: HT29 colon
DU-145 prostate = tested on: DU-145 prostate
NCI-H522 lung = tested on: NCI-H522 lung
SNB-75 CNS = tested on: SNB-75 CNS
PC-3 prostate = tested on: PC-3 prostate
OVCAR-8 ovarian = tested on: OVCAR-8 ovarian
SR leukemia = tested on: SR leukemia
MDA-MB-231 breast = tested on: MDA-MB-231 breast
SK-MEL-2 melanoma = tested on: SK-MEL-2 melanoma
M14 melanoma = tested on: M14 melanoma
LOX IMVI melanoma = tested on: LOX IMVI melanoma
HCC-2998 colon = tested on: HCC-2998 colon
MDA-MB-435 melanoma = tested on: MDA-MB-435 melanoma
OVCAR-5 ovarian = tested on: OVCAR-5 ovarian
HOP-62 NSCLC = tested on: HOP-62 NSCLC
OVCAR-3 ovarian = tested on: OVCAR-3 ovarian
K-562 leukemia = tested on: K-562 leukemia
SK-MEL-28 melanoma = tested on: SK-MEL-28 melanoma
T-47D breast = tested on: T-47D breast
ACHN renal = tested on: ACHN renal
RPMI-8226 leukemia = tested on: RPMI-8226 leukemia
NCI-H322M lung = tested on: NCI-H322M lung
TK-10 renal = tested on: TK-10 renal
UACC-62 melanoma = tested on: UACC-62 melanoma
SK-OV-3 ovarian = tested on: SK-OV-3 ovarian
SF-268 CNS = tested on: SF-268 CNS
HOP-92 NSCLC = tested on: HOP-92 NSCLC
HL-60(TB) leukemia = tested on: HL-60(TB) leukemia
MOLT-4 leukemia = tested on: MOLT-4 leukemia
NCI/ADR-RES ovarian = tested on: NCI/ADR-RES ovarian
CCRF-CEM leukemia = tested on: CCRF-CEM leukemia
UO-31 renal = tested on: UO-31 renal
IGROV1 ovarian = tested on: IGROV1 ovarian
HS 578T breast = tested on: HS 578T breast
UACC-257 melanoma = tested on: UACC-257 melanoma
MALME-3M melanoma = tested on: MALME-3M melanoma
SF-539 CNS = tested on: SF-539 CNS
A549 NSCLC = tested on: A549 NSCLC
EKVX NSCLC = tested on: EKVX NSCLC
OVCAR-4 ovarian = tested on: OVCAR-4 ovarian
NCI-H226 lung = tested on: NCI-H226 lung
SNB-19 CNS = tested on: SNB-19 CNS

SMILES: CCCS(=O)(=O)Nc1ccc(F)c(C(=O)c2c[nH]c3ncc(-c4ccc(Cl)cc4)cc23)c1F
- GI50 (SN12C renal): 8.1 µM
- TGI (SN12C renal): 22.5 µM
- GI50 (CAKI-1 renal): 3.69 µM
- TGI (CAKI-1 renal): 10.5 µM
- GI50 (SF-295 CNS): 3.34 µM
- TGI (SF-295 CNS): 5.93 µM
- GI50 (RXF 393 renal): 2.36 µM
- TGI (RXF 393 renal): 6.45 µM
- GI50 (SW-620 colon): 4.61 µM
- TGI (SW-620 colon): 23.3 µM
- GI50 (HT29 colon): 0.146 µM
- TGI (HT29 colon): 10.4 µM
- GI50 (DU-145 prostate): 5.88 µM
- TGI (DU-145 prostate): 18.6 µM
- GI50 (NCI-H522 lung): 7.93 µM
- TGI (NCI-H522 lung): 16 µM
- GI50 (SNB-75 CNS): 5.79 µM
- TGI (SNB-75 CNS): 13.3 µM
- GI50 (PC-3 prostate): 8.55 µM
- TGI (PC-3 prostate): 21.3 µM
- GI50 (OVCAR-8 ovarian): 7.8 µM
- TGI (OVCAR-8 ovarian): 15.7 µM
- GI50 (SR leukemia): 1.67 µM
- TGI (SR leukemia): 4.22 µM
- GI50 (MDA-MB-231 breast): 3.8 µM
- TGI (MDA-MB-231 breast): 8.85 µM
- GI50 (SK-MEL-2 melanoma): 0.0758 µM
- TGI (SK-MEL-2 melanoma): 0.33 µM
- GI50 (M14 melanoma): 0.0305 µM
- TGI (M14 melanoma): 0.321 µM
- GI50 (LOX IMVI melanoma): 3.93 µM
- TGI (LOX IMVI melanoma): 11.6 µM
- GI50 (HCC-2998 colon): 0.593 µM
- TGI (HCC-2998 colon): 1.96 µM
- GI50 (MDA-MB-435 melanoma): 0.281 µM
- TGI (MDA-MB-435 melanoma): 14.6 µM
- GI50 (OVCAR-5 ovarian): 4.41 µM
- TGI (OVCAR-5 ovarian): 21.3 µM
- GI50 (HOP-62 NSCLC): 5.12 µM
- TGI (HOP-62 NSCLC): 14.9 µM
- GI50 (OVCAR-3 ovarian): 8.19 µM
- TGI (OVCAR-3 ovarian): 16.1 µM
- GI50 (K-562 leukemia): 1.66 µM
- TGI (K-562 leukemia): 3.43 µM
- GI50 (SK-MEL-28 melanoma): 0.0274 µM
- TGI (SK-MEL-28 melanoma): 0.388 µM
- GI50 (T-47D breast): 6.77 µM
- TGI (T-47D breast): 16.9 µM
- GI50 (ACHN renal): 5.39 µM
- TGI (ACHN renal): 19.5 µM
- GI50 (RPMI-8226 leukemia): 3.38 µM
- TGI (RPMI-8226 leukemia): 6.5 µM
- GI50 (NCI-H322M lung): 4.65 µM
- TGI (NCI-H322M lung): 16 µM
- GI50 (TK-10 renal): 13.5 µM
- TGI (TK-10 renal): 22.3 µM
- GI50 (UACC-62 melanoma): 0.0345 µM
- TGI (UACC-62 melanoma): 0.912 µM
- GI50 (SK-OV-3 ovarian): 5.57 µM
- TGI (SK-OV-3 ovarian): 12 µM
- GI50 (SF-268 CNS): 7.88 µM
- TGI (SF-268 CNS): 15.8 µM
- GI50 (HOP-92 NSCLC): 4.98 µM
- TGI (HOP-92 NSCLC): 12.1 µM
- GI50 (HL-60(TB) leukemia): 0.902 µM
- TGI (HL-60(TB) leukemia): 5.03 µM
- GI50 (MOLT-4 leukemia): 3.23 µM
- TGI (MOLT-4 leukemia): 8.74 µM
- GI50 (NCI/ADR-RES ovarian): 9.06 µM
- TGI (NCI/ADR-RES ovarian): 22.4 µM
- GI50 (CCRF-CEM leukemia): 4.15 µM
- TGI (CCRF-CEM leukemia): 6.41 µM
- GI50 (UO-31 renal): 4.74 µM
- TGI (UO-31 renal): 16.6 µM
- GI50 (IGROV1 ovarian): 1.87 µM
- TGI (IGROV1 ovarian): 8.76 µM
- GI50 (HS 578T breast): 2.52 µM
- TGI (HS 578T breast): 6.2 µM
- GI50 (UACC-257 melanoma): 0.347 µM
- GI50 (MALME-3M melanoma): 0.0242 µM
- TGI (MALME-3M melanoma): 0.0897 µM
- GI50 (SF-539 CNS): 4.33 µM
- TGI (SF-539 CNS): 10.5 µM
- GI50 (A549 NSCLC): 3.99 µM
- TGI (A549 NSCLC): 10.8 µM
- GI50 (EKVX NSCLC): 7 µM
- TGI (EKVX NSCLC): 12.7 µM
- GI50 (OVCAR-4 ovarian): 8.45 µM
- TGI (OVCAR-4 ovarian): 20.6 µM
- GI50 (NCI-H226 lung): 7.95 µM
- TGI (NCI-H226 lung): 17.2 µM
- GI50 (SNB-19 CNS): 8.27 µM
- TGI (SNB-19 CNS): 23.4 µM
